Data on 10 compounds can be found in patent US12509431B2, “1,4-dihydroquinazolinone compounds and uses thereof” (Edgewise Therapeutics, Inc., priority 2022, dated 2025).

Structures are written as SMILES.

Common to all, as to assay type: biochemical
The subject of assay [1] is Rabbit Skeletal myofibrils (rabbit psoas muscle). The assay can be described thus: Myofibril ATPase assay (PK/LDH NADH-coupled), skeletal myofibrils. The gist of the method: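 ATPase rate taken as linear-regression slope of A340 (NADH depletion through PK/LDH coupling) over a 75 min kinetic read, with psoas-derived rabbit skeletal myofibrils at pH 7.0. Four-parameter fits of vehicle-normalized activity give EC25 and, where reached, EC50.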

Assay [2] deals with Porcine Atria myofibrils. In words: Myofibril ATPase assay (PK/LDH NADH-coupled), atria myofibrils. The gist of the method: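 Values are EC25% (and, for inhibitors, EC50%) from 4-parameter logistic fits of activity normalized to vehicle wells. Rates came from linear regression of 340 nm kinetic reads (every 1.5-2 min, 75 min) of NADH-coupled ATP turnover by porcine atria myofibrils.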

In assay [3] the target is T1, myosin+removed RLC (Sus scrofa, UniProt P79293).
T1 construct: Full-length myosin was resuspended to 1 mg/mL
The assay can be described thus: NADH-coupled actin-activated ATPase assay, myosin + removed RLC. The following applies: 2 μM myosin, rabbit skeletal actin, 25° C., 1% DMSO. As for the experimental part: Full-length myosin was resuspended to 1 mg/mL in a buffer containing 500 mM KCl, 10 mM KPi, 15 mM CDTA, pH 8.5. Triton-X was then added to a final concentration of […], and the suspension was agitated for 15 minutes at room temperature to selectively remove the regulatory light chain (RLC). RLC-removed myosin was then precipitated and collected and resuspended in a buffer containing 400 mM KCl, 50 mM Mops, pH 7, 2 mM MgCl2, and 1 mM DTT. Recombinantly expressed and purified human ventricle RLC was added in a 3-fold molar excess to myosin and incubated on ice for 2 hours to allow for reassociation of the RLC onto myosin. Triton (0.1%) was added to the reaction to prevent any non-specific binding events. RLC-exchanged myosin was then precipitated and collected and resuspended in a buffer containing 12 mM PIPES, pH 6.8, […], 2 mM MgCl2, and 1 mM DTT. RLC removal and exchange were confirmed by SDS-PAGE and proteins were visualized using coomassie stain.
Myosin was resuspended in buffer A (f.c.=12 mM PIPES, pH 6.8, 30 mM KCl, 2 mM MgCl2, 1 mM DTT, 0.1 mg/mL BSA, 0.01% (v/v) Antifoam 204, and 0.6% (v/v) PK/LDH (final reaction contains ≥3.6 U/mL PK and >5.4 U/mL LDH)) at final concentrations of 1 μM for myosin+native RLC and 2 μM for myosin+removed RLC and myosin+human ventricle RLC. Buffer A was then mixed with an equal volume of buffer B (f.c.=12 mM PIPES, pH 6.8, 30 mM KCl, 2 mM MgCl2, 1 mM DTT, 0.1 mg/mL BSA, 0.01% (v/v) Antifoam 204, 0.5 mM NADH, 1.5 mM phosphoenolpyruvate, 1 mM ATP, and 0.3 mg/mL filamentous rabbit skeletal actin) in a 384-well plate. Dose-dependent compound effects were assessed by adding the compounds at varying concentrations between 100 μM and 2 nM, all with a constant final DMSO concentration of 1% v/v. The reactions were run at a constant temperature of 25° C. in the plate reader to monitor the change in A340 over time. Measurements were taken every 90 sec for 75 min to generate raw time-domain absorbance data, which was processed to normalized reaction rates. Normalized enzymatic rates were calculated, using rates observed in 1% (v/v) in DMSO as 100% and 0 slope as 0%. Compound-specific activity curves were generated by plotting the normalized rates versus compound concentration and fitting the data to a 4-parameter logistic model. In addition to the fit parameters, the IC25% was calculated, relative to the 100% normalized value.

T1 sequence (P79293 whole entry): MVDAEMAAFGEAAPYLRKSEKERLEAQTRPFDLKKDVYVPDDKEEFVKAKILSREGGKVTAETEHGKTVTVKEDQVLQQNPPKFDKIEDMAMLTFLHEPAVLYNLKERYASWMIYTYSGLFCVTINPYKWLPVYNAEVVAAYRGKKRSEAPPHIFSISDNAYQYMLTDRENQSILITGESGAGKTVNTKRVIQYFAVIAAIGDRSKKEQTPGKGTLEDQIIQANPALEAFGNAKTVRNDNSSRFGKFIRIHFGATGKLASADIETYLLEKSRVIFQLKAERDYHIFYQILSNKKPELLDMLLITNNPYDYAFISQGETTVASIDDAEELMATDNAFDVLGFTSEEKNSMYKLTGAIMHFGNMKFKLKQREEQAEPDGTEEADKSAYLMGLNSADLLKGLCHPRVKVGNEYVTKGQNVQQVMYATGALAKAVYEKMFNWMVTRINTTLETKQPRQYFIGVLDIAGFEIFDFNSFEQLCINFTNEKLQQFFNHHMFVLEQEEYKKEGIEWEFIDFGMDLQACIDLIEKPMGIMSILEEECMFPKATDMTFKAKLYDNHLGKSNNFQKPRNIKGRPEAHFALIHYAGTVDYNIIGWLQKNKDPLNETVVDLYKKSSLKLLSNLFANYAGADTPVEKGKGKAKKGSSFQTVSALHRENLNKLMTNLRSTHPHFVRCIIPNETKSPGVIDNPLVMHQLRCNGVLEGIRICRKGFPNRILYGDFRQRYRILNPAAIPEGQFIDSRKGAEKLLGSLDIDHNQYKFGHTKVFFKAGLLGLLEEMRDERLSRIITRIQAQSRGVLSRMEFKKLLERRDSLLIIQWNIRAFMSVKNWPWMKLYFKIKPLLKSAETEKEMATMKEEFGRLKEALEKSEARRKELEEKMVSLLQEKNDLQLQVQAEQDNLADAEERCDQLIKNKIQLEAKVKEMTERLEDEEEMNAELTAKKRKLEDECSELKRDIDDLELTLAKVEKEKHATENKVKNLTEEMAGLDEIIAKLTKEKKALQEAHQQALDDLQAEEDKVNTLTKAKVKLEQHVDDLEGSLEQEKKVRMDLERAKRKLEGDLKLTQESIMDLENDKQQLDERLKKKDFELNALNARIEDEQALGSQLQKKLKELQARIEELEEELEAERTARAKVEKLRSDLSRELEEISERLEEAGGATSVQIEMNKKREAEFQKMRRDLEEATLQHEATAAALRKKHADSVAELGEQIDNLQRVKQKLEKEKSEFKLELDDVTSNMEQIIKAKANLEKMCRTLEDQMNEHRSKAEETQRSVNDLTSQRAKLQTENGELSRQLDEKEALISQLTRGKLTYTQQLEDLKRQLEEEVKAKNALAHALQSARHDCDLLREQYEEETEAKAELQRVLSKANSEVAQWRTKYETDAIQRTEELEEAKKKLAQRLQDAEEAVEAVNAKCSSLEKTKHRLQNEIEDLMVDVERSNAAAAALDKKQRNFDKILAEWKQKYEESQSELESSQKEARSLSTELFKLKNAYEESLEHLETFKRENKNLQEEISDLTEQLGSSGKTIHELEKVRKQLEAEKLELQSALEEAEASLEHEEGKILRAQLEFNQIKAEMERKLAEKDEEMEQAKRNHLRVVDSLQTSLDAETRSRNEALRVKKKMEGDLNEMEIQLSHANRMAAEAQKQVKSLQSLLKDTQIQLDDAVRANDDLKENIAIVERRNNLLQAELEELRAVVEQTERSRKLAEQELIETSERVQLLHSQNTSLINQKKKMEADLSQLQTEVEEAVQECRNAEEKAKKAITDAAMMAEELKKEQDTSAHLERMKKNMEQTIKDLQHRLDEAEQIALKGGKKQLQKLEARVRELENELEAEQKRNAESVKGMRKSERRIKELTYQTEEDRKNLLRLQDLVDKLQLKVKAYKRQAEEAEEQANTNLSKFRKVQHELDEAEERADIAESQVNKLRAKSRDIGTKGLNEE

In the case of `N#Cc1cnc2c(c1)OCC2NC(=O)CN1Cc2c(ccc(F)c2F)NC1=O` (single isomer, unassigned) [Compound B65], the “Rabbit Psoas IC25” value in assay [1] (Table 8) was found to be 19.1 nM. Moreover, the “Porcine Atria IC25” value in assay [2] (Table 8) was 60 nM. Moreover, the “Potency, Full-length myosin + RLC removed” value in assay [3] was greater than 100000 nM.
In the same order, the values of `CC(NC(=O)CN1Cc2cc(F)ccc2NC1=O)c1ccc(C#N)cc1F` (single isomer, unassigned) [Compound B206] are 11.29 nM, 30 nM and greater than 100000 nM.
In the same order, the values of `C[C@@H](NC(=O)CN1Cc2c(ccc(F)c2F)NC1=O)c1ncc(C#N)cc1F` [Compound B141, (R)—N-(1-(5-cyano-3-fluoropyridin-2-yl)ethyl)-2-(5,6-difluoro-2-oxo-1,4-dihydroquinazolin-3(2H)-yl)acetamide] are 422.8 nM, 130 nM and greater than 100000 nM.
On the same counts, the results for `O=C(CN1Cc2cc(F)ccc2NC1=O)N[C@@H]1COc2cc(F)cc(F)c21` [Compound B145] are 11.6 nM, 20 nM and greater than 100000 nM.
For `O=C(CN1Cc2c(ccc(F)c2F)NC1=O)N[C@@H]1COc2cc(F)cc(F)c21` [Compound B147], in assay [1] (Table 8), the “Rabbit Psoas IC25” value stood at 16.23 nM. In addition, the “Porcine Atria IC25” value in assay [2] (Table 8) stood at 50 nM. Besides, the “Potency, Full-length myosin + RLC removed” value in assay [3] was greater than 100000 nM.
On the same counts, the results for `C[C@H](NC(=O)CN1Cc2c(ccc(F)c2F)NC1=O)c1ccc(C#N)cc1F` [Compound B189] are 18.79 nM, 30 nM and greater than 100000 nM.
Consider `C[C@H](NC(=O)CN1Cc2c(ccc(F)c2F)NC1=O)c1ncc(F)cc1F` [Compound B191], for which, in assay [1] (Table 8), the “Rabbit Psoas IC25” value was 20.19 nM. Moreover, the “Porcine Atria IC25” value in assay [2] (Table 8) was determined as 40 nM. Besides, in assay [3], the “Potency, Full-length myosin + RLC removed” value is greater than 100000 nM.
In the same order, the values of `C[C@H](NC(=O)CN1Cc2cc(F)ccc2NC1=O)c1ncc(C#N)cc1F` [Compound B199] are 39.4 nM, 90 nM and greater than 100000 nM.
In the same order, the values of `C[C@H](NC(=O)CN1Cc2cc(F)ccc2NC1=O)c1ccc(F)cc1F` [Compound B247, N-[(1S)-1-(2,4-Difluorophenyl)ethyl]-2-(6-fluoro-2-oxo-1,4-dihydroquinazolin-3-yl)acetamide] are 32.05 nM, 60 nM and greater than 100000 nM.
Take `O=C(CN1C(=O)Nc2cccnc2C12CC2)N[C@@H]1COc2cc(F)cc(F)c21` [Compound N33]: the “Rabbit Psoas IC25” value in assay [1] (Table 7) is 19.37 nM. For the same compound, the “Porcine Atria IC25” value in assay [2] (Table 7) is 80 nM. In assay [3], the “Potency, Full-length myosin + RLC removed” value was greater than 100000 nM.
